We go through 21 compounds from US20260200897A1, “4-((5-(3-(4-(PYRIDIN-2-YL)CYCLOPENTYL)-1H-PYRAZOL-3-YL)AMINO)-BENZENESULFONAMIDE DERIVATIVES AND SIMILAR COMPOUNDS AS CDK INHIBITORS FOR THE TREATMENT OF CANCER” (BeOne Medicines I GmbH, priority 2023, published 2026).

Assay [1] concerns the target CDK1/Cyclin B1 (Homo sapiens, UniProt P06493). Put plainly: CDK1/Cyclin B1 TR-FRET biochemical assay, 0.015 mM ATP. The conditions noted are these: 0.15 μM Rb (Ser780)-biotin substrate, 120 min reaction, Table 1. The protocol:
(§1) Compounds disclosed herein were tested for inhibition of CDK2/Cyclin E1 or CDK1/Cyclin B1 kinase in an assay based on the time-resolved fluorescence-resonance energy transfer (TR-FRET) methodology. The assay was carried out in 384-well low volume black plates in a reaction mixture containing CDK2/Cyclin E1 or CDK1/Cyclin B1, 0.060 mM ATP for CDK2/Cyclin E1 or 0.015 mM ATP for CDK1/Cyclin B1, 0.15 μM Rb (Ser780)-biotin substrate and 0-10 μM compound in buffer containing 50 mM HEPES pH7.0, 0.02% NaN3, 0.01% BSA, 0.1 mM Orthovanadate, 50 mM MgCl2, 1 mM DTT and 0.005% Tween-20. The kinase was incubated with compound for 60 minutes at room temperature and the reaction was initiated by the addition of ATP and Rb (Ser780)-biotin substrate. After reaction at room temperature for 120 minutes, an equal volume of stop/detection solution was added according to the manufacture's instruction (Cisbio Bioassays). The stop/detection solution contained Streptavidin-XL665 and Anti-pRb (Ser780) mAb-Eu Cryptate in Detection buffer (Cisbio Bioassays). Plates were incubated at room temperature for 60 minutes, and the TR-FRET signals (ex337 nm, em665 nm/620 nm) were recorded on a PHERAstar FSX plate reader (BMG Labtech). The inhibition percentage of CDK2/Cyclin E1 or CDK1/Cyclin B1 kinase activity in presence of increasing concentrations of compounds was calculated based on the ratio of fluorescence at 665 nm to that at 620 nm. The IC50 for each compound was derived from fitting the data to the four-parameter logistic equation by Dotmatics.

Assay [2] has as its target CDK2/Cyclin E1 (Homo sapiens, UniProt P24941). The assay is described as follows: CDK2/Cyclin E1 TR-FRET biochemical assay, 0.060 mM ATP. To be noted: 0.15 μM Rb (Ser780)-biotin substrate, 120 min reaction, Table 1. How it is done: as §1

SMILES strings stand for the structures.

Sequence of CDK1/Cyclin B1 (P06493 whole entry): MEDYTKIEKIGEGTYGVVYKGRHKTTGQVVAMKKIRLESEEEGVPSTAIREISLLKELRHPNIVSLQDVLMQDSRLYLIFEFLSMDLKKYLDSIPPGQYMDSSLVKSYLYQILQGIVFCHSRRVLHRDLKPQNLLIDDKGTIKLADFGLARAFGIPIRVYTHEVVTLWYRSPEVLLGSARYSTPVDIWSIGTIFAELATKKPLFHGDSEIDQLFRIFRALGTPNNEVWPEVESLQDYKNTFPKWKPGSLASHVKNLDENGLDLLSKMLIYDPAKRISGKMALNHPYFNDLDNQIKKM
Sequence of CDK1/Cyclin B1 (P14635 whole entry partner): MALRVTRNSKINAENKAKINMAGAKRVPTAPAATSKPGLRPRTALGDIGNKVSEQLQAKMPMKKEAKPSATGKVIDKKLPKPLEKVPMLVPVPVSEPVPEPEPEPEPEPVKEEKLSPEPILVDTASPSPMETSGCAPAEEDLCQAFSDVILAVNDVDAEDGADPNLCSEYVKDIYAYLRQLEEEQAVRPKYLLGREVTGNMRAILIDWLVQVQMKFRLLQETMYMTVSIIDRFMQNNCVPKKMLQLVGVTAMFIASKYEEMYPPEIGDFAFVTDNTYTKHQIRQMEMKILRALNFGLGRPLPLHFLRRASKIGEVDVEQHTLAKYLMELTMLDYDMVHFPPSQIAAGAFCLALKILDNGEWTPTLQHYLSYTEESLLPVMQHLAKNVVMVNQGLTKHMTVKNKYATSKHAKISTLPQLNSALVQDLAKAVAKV

As for `O=c1c2ccncc2cnn1[C@H]1CC[C@@H](c2cc(Nc3ccc4c(c3F)CNS4(=O)=O)n[nH]2)C1` (relative stereo) [Example 34, cis-2-(3-(3-((4-fluoro-1,1-dioxido-2,3-dihydrobenzo[d]isothiazol-5-yl)amino)-1H-pyrazol-5-yl)cyclopentyl)pyrido[3,4-d]pyridazin-1 (2H)-one], the 50% inhibitory concentration (IC50) was determined as 1550 nM in assay [1] and 63 nM in assay [2].

As to `O=S1(=O)NCc2c1ccc(Nc1cc([C@H]3CC[C@@H](Oc4nscc4C4CC4)C3)[nH]n1)c2F` (relative stereo) [Example 53, cis-5-((5-(3-((4-cyclopropylisothiazol-3-yl)oxy)cyclopentyl)-1H-pyrazol-3-yl)amino)-4-fluoro-2,3-dihydrobenzo[d]isothiazole 1,1-dioxide], the results for the half-inhibitory concentration (IC50) in assay [1] and in assay [2] were 118 nM and 4.1 nM, respectively.

For `O=S1(=O)NCc2c1ccc(Nc1cc([C@H]3CC[C@@H](Oc4cc(C(F)(F)F)n[nH]4)C3)[nH]n1)c2F` (relative stereo) [Example 69, cis-4-fluoro-5-((5-(3-((3-(trifluoromethyl)-1H-pyrazol-5-yl)oxy)cyclopentyl)-1H-pyrazol-3-yl)amino)-2,3-dihydrobenzo[d]isothiazole 1,1-dioxide], the IC50 was over 10000 nM in assay [1] and 829 nM in assay [2].

Turning to `O=S1(=O)NCc2c1ccc(Nc1cc([C@H]3CC[C@@H](Oc4cnccc4C4CC4)C3)[nH]n1)c2F` (relative stereo) [Example 41, cis-5-((5-(3-((4-cyclopropylpyridin-3-yl)oxy)cyclopentyl)-1H-pyrazol-3-yl)amino)-4-fluoro-2,3-dihydrobenzo[d]isothiazole 1,1-dioxide], the results for the IC50 in assay [1] and in assay [2] were 474 nM and 33 nM, respectively.

For `Cc1n[nH]c(C)c1O[C@@H]1CC[C@H](c2cc(Nc3ccc4c(c3F)CNS4(=O)=O)n[nH]2)C1` (relative stereo) [Example 75, cis-5-((5-(3-((3,5-dimethyl-1H-pyrazol-4-yl)oxy)cyclopentyl)-1H-pyrazol-3-yl)amino)-4-fluoro-2,3-dihydrobenzo[d]isothiazole 1,1-dioxide], the half-inhibitory concentration (IC50) in assay [1] is 1070 nM; in assay [2] it was 53 nM.

For `CC(C)(C)n1cnnc1O[C@@H]1CC[C@H](c2cc(Nc3ccc4c(c3F)CNS4(=O)=O)n[nH]2)C1` (relative stereo) [Example 59, (cis)-5-((5-(3-((4-(tert-butyl)-4H-1,2,4-triazol-3-yl)oxy)cyclopentyl)-1H-pyrazol-3-yl)amino)-4-fluoro-2,3-dihydrobenzo[d]isothiazole 1,1-dioxide], the 50% inhibitory concentration (IC50) in assay [1] was 556 nM; in assay [2], 7.6 nM.

`CC1(C)CN([C@H]2CC[C@@H](c3cc(Nc4ccc5c(c4F)CNS5(=O)=O)n[nH]3)C2)C(=O)N1` (relative stereo) [Example 85, cis-1-(3-(3-((4-fluoro-1,1-dioxido-2,3-dihydrobenzo[d]isothiazol-5-yl)amino)-1H-pyrazol-5-yl)cyclopentyl)-4,4-dimethylimidazolidin-2-one]: the IC50 in assay [1] came out at 289 nM; in assay [2] it was 31 nM.

For the compound `O=S1(=O)NCc2c1ccc(Nc1cc([C@H]3CC[C@@H](Oc4nnccc4C4CC4)C3)[nH]n1)c2F` (relative stereo) [Example 29, cis-5-((5-(3-((4-cyclopropylpyridazin-3-yl)oxy)cyclopentyl)-1H-pyrazol-3-yl)amino)-4-fluoro-2,3-dihydrobenzo[d]isothiazole 1,1-dioxide], the IC50 was found to be 35 nM in assay [1] and 2.9 nM in assay [2].

In the case of `CC(C)(C)c1cc(O[C@@H]2CC[C@H](c3cc(Nc4ccc5c(c4F)CNS5(=O)=O)n[nH]3)C2)[nH]n1` (relative stereo) [Example 71, cis-5-((5-(3-((3-(tert-butyl)-1H-pyrazol-5-yl)oxy)cyclopentyl)-1H-pyrazol-3-yl)amino)-4-fluoro-2,3-dihydrobenzo[d]isothiazole 1,1-dioxide], the IC50 in assay [1] was 7810 nM; in assay [2], 391 nM.

As for `Cc1ccnnc1O[C@@H]1CC[C@H](c2cc(Nc3ccc4c(c3F)CNS4(=O)=O)n[nH]2)C1` (relative stereo) [Example 24, cis-4-fluoro-5-((5-(3-((4-methylpyridazin-3-yl)oxy)cyclopentyl)-1H-pyrazol-3-yl)amino)-2,3-dihydrobenzo[d]isothiazole 1,1-dioxide], the half-maximal inhibitory concentration (IC50) was 49 nM in assay [1] and 5.7 nM in assay [2].

Regarding `CC(C)c1cnn([C@H]2CC[C@@H](c3cc(Nc4ccc5c(c4F)CNS5(=O)=O)n[nH]3)C2)c(=O)c1` (relative stereo) [Example 33, cis-2-(3-(3-((4-fluoro-1,1-dioxido-2,3-dihydrobenzo[d]isothiazol-5-yl)amino)-1H-pyrazol-5-yl)cyclopentyl)-5-isopropylpyridazin-3 (2H)-one], the values for the half-inhibitory concentration (IC50) in assay [1] and in assay [2] were 703 nM and 7.5 nM, respectively.

As for `CC(C)c1cn[nH]c1O[C@@H]1CC[C@H](c2cc(Nc3ccc4c(c3F)CNS4(=O)=O)n[nH]2)C1` (relative stereo) [Example 60, cis-4-fluoro-5-((5-(3-((4-isopropyl-1H-pyrazol-5-yl)oxy)cyclopentyl)-1H-pyrazol-3-yl)amino)-2,3-dihydrobenzo[d]isothiazole 1,1-dioxide], the 50% inhibitory concentration (IC50) turned out to be 732 nM in assay [1] and 12 nM in assay [2].

As for `CC1(n2cnnc2O[C@@H]2CC[C@H](c3cc(Nc4ccc5c(c4F)CNS5(=O)=O)n[nH]3)C2)CC1` (relative stereo) [Example 58, cis-4-fluoro-5-((5-(3-((4-(1-methylcyclopropyl)-4H-1,2,4-triazol-3-yl)oxy)cyclopentyl)-1H-pyrazol-3-yl)amino)-2,3-dihydrobenzo[d]isothiazole 1,1-dioxide], the concentration for half-maximal inhibition (IC50) in assay [1] was 7200 nM; in assay [2] it was 269 nM.

Turning to `O=S1(=O)NCc2c1ccc(Nc1cc([C@H]3CC[C@@H](Oc4cccnc4)C3)[nH]n1)c2F` (relative stereo) [Example 39, cis-4-fluoro-5-((5-(3-(pyridin-3-yloxy)cyclopentyl)-1H-pyrazol-3-yl)amino)-2,3-dihydrobenzo[d]isothiazole 1,1-dioxide], the IC50 came to 2330 nM in assay [1] and 55 nM in assay [2].

Regarding `Cn1ccc(O[C@@H]2CC[C@H](c3cc(Nc4ccc5c(c4F)CNS5(=O)=O)n[nH]3)C2)n1` (relative stereo) [Example 64, cis-4-fluoro-5-((5-(3-((1-methyl-1H-pyrazol-3-yl)oxy)cyclopentyl)-1H-pyrazol-3-yl)amino)-2,3-dihydrobenzo[d]isothiazole 1,1-dioxide], the concentration for half-maximal inhibition (IC50) in assay [1] was 1900 nM; in assay [2] it was 296 nM.

On to `O=S1(=O)NCc2c1ccc(Nc1cc([C@H]3CC[C@@H](Oc4ccn[nH]4)C3)[nH]n1)c2F` (relative stereo) [Example 62, cis-5-((5-(3-((1H-pyrazol-5-yl)oxy)cyclopentyl)-1H-pyrazol-3-yl)amino)-4-fluoro-2,3-dihydrobenzo[d]isothiazole 1,1-dioxide], for which the half-inhibitory concentration (IC50) stood at 571 nM in assay [1] and 24 nM in assay [2].

Regarding `Cn1nccc1O[C@@H]1CC[C@H](c2cc(Nc3ccc4c(c3F)CNS4(=O)=O)n[nH]2)C1` (relative stereo) [Example 63, cis-4-fluoro-5-((5-(3-((1-methyl-1H-pyrazol-5-yl)oxy)cyclopentyl)-1H-pyrazol-3-yl)amino)-2,3-dihydrobenzo[d]isothiazole 1,1-dioxide], the figures for the IC50 in assay [1] and in assay [2] were 3120 nM and 90 nM, respectively.

In the case of `CC(C)(C)c1ccnc(O[C@@H]2CC[C@H](c3cc(Nc4ccc5c(c4F)CNS5(=O)=O)n[nH]3)C2)c1` (relative stereo) [Example 47, cis-5-((5-(3-((4-(tert-butyl)pyridin-2-yl)oxy)cyclopentyl)-1H-pyrazol-3-yl)amino)-4-fluoro-2,3-dihydrobenzo[d]isothiazole 1,1-dioxide], the concentration for half-maximal inhibition (IC50) was over 10000 nM in assay [1] and 3440 nM in assay [2].

For the compound `O=c1ccon1[C@H]1CC[C@@H](c2cc(Nc3ccc4c(c3F)CNS4(=O)=O)n[nH]2)C1` (relative stereo) [Example 49, cis-2-(3-(3-((4-fluoro-1,1-dioxido-2,3-dihydrobenzo[d]isothiazol-5-yl)amino)-1H-pyrazol-5-yl)cyclopentyl)isoxazol-3 (2H)-one], the values for the 50% inhibitory concentration (IC50) in assay [1] and in assay [2] were 2560 nM and 478 nM, respectively.

Consider `Cn1cc(O[C@@H]2CC[C@H](c3cc(Nc4ccc5c(c4F)CNS5(=O)=O)n[nH]3)C2)cn1` (relative stereo) [Example 77, cis-4-fluoro-5-((5-(3-((1-methyl-1H-pyrazol-4-yl)oxy)cyclopentyl)-1H-pyrazol-3-yl)amino)-2,3-dihydrobenzo[d]isothiazole 1,1-dioxide], for which the IC50 in assay [1] is over 10000 nM; in assay [2], 530 nM.

`CC(C)N1CCN([C@H]2CC[C@@H](c3cc(Nc4ccc5c(c4F)CNS5(=O)=O)n[nH]3)C2)C1=O` (relative stereo) [Example 81, cis-1-(3-(3-((4-fluoro-1,1-dioxido-2,3-dihydrobenzo[d]isothiazol-5-yl)amino)-1H-pyrazol-5-yl)cyclopentyl)-3-isopropylimidazolidin-2-one]: the half-inhibitory concentration (IC50) in assay [1] is over 10000 nM; in assay [2], 1190 nM.

For orientation: IC50 means the concentration that inhibits the measured activity by half. High values mean lower potency, low ones higher potency.
